What was measured:
Test in all cases: Cell line proliferation study
Format in all cases: cell-based, human
NCIH508 = details: NCIH508, colon; for IC50: Homo sapiens, NCI-H508, 72 hours, read-out: gIC50
Experimental: (§1) In a separate study, combination drug tests with Compounds A and B were conducted using a panel of cell lines from human colon cancers (n=26), lung cancers (n=15) and pancreatic cancers (n=6). Cell lines were obtained from commercial vendors (ATCC and DSMZ). Cell lines were grown in RPMI-1640 supplemented with 2 mM glutamine, 1 mM sodium pyruvate and 10% fetal bovine serum (except for Capan-1 and HuP-T4 which were grown with 20% fetal bovine serum) and maintained at 37° C. and 5% CO2 in a humid incubator. Assays were performed in 384 well microtiter plates with optimum seeding densities for each cell line.
(§2) The test compounds were prepared as 10 mM stocks in 100% DMSO. Further dilutions of the compounds were made in DMSO. Compound A was diluted horizontally in a separate 96 well microtiter plate in rows D-G using a 3-fold dilution series for 10 dilution points. Compound B was similarly diluted horizontally in a 96 well microtiter plate in rows B-E using a 3-fold dilution series for 10 dilution points.
(§3) The two compounds were combined using equal volumes from each drug plate into cell culture media. […] Both Compound A and Compound B were individually titrated in rows B and C (for Compound B) and rows F and G (for Compound A) of the merged drug plate.
(§4) A 1:10 dilution of the drugs was performed in cell culture media prior to addition to the cells.
(§5) The final concentration range for the test compounds was 250 to 0.013 nM for Compound A and 1000 to […] for Compound B. The positive control consisted of culture media with DMSO at 0.1% and cells. The negative control consisted of culture media with DMSO at 0.1%. The cell lines were incubated at 37° C., 5% CO2 in humid air for 72 hours. Cell proliferation was measured using the CellTiter Glo (Promega) reagent according to the manufacturer's protocol. The plates are treated with CellTiter Glo solution and are analyzed for RLU (relative light units) using a Molecular Devices SpectraMax M5 plate reader.
(§6) The percent intensity values were used in model 205 of XLfit (IDBS, Inc.) in Microsoft Excel to calculate gIC50 values using a 4 parameter logistical fit. The midpoint of the growth window (the gIC50) falls half way between the number of cells at the time of compound addition (T=0) and the growth of control cells treated with DMSO at 72 hrs. The number of cells at time zero (T0) is divided from the intensity value at the bottom of the response curve (Ymin) to generate a measure for cell death (Ymin/T0). A value below 1 for Ymin/T0 indicates stronger potency to induce cell death with the treatment when compared to higher values. […]

NCIH520 = details: NCIH520, lung; for IC50: Homo sapiens, NCI-H520, 72 hours, read-out: gIC50
Experimental: as §1, §2, §3, §4, §5, §6

SW1116 = details: SW1116, colon; for IC50: Homo sapiens, SW 1116, 72 hours, read-out: gIC50
Experimental: as §1, §2, §3, §4, §5, §6

HCT116 = details: HCT116, colon; for IC50: Homo sapiens, HCT-116, 72 hours, read-out: gIC50
Experimental: as §1, §2, §3, §4, §5, §6

Colo320DM = details: colon; for IC50: Homo sapiens, COLO 320DM, 72 hours, read-out: gIC50
Experimental: as §1, §2, §3, §4, §5, §6

Colo320HSR = details: colon; for IC50: Homo sapiens, COLO-320-HSR, 72 hours, read-out: gIC50
Experimental: as §1, §2, §3, §4, §5, §6

NCIH747 = details: NCIH747, colon; for IC50: Homo sapiens, NCI-H747, 72 hours, read-out: gIC50
Experimental: as §1, §2, §3, §4, §5, §6

NCIH358 = details: NCIH358, lung; for IC50: Homo sapiens, NCI-H358, 72 hours, read-out: gIC50
Experimental: as §1, §2, §3, §4, §5, §6

ASPC1 = details: ASPC1, pancreas; for IC50: Homo sapiens, 72 hours, read-out: gIC50
Experimental: as §1, §2, §3, §4, §5, §6

A549 = details: A549, lung; for IC50: Homo sapiens, 72 hours, read-out: gIC50
Experimental: as §1, §2, §3, §4, §5, §6

NCIH2170 = details: NCIH2170, lung; for IC50: Homo sapiens, NCI-H2170, 72 hours, read-out: gIC50
Experimental: as §1, §2, §3, §4, §5, §6

RKO = details: colon; for IC50: Homo sapiens, 72 hours, read-out: gIC50
Experimental: as §1, §2, §3, §4, §5, §6

HCT-15 = details: HC115, colon; for IC50: Homo sapiens, HCT-15, 72 hours, read-out: gIC50
Experimental: as §1, §2, §3, §4, §5, §6

SW1417 = details: SW1417, colon; for IC50: Homo sapiens, 72 hours, read-out: gIC50
Experimental: as §1, §2, §3, §4, §5, §6

NCIH2228 = details: NCIH2228, lung; for IC50: Homo sapiens, NCI-H2228, 72 hours, read-out: gIC50
Experimental: as §1, §2, §3, §4, §5, §6

DLD1 = details: DLD1, colon; for IC50: Homo sapiens, DLD-1, 72 hours, read-out: gIC50
Experimental: as §1, §2, §3, §4, §5, §6

Colo201 = details: Colo201, colon; for IC50: Homo sapiens, COLO 201, 72 hours, read-out: gIC50
Experimental: as §1, §2, §3, §4, §5, §6

Calu6 = details: Calu6, lung; for IC50: Homo sapiens, Calu-6, 72 hours, read-out: gIC50
Experimental: as §1, §2, §3, §4, §5, §6

NCIH460 = details: NCIH460, lung; for IC50: Homo sapiens, NCI-H460, 72 hours, read-out: gIC50
Experimental: as §1, §2, §3, §4, §5, §6

HCC2998 = details: HCC2998, colon; for IC50: Homo sapiens, HCC 2998, 72 hours, read-out: gIC50
Experimental: as §1, §2, §3, §4, §5, §6

SMILES | IC50 (NCIH508) [µM] | Ymin/T0 (NCIH508) | IC50 (NCIH520) [µM] | Ymin/T0 (NCIH520) | IC50 (SW1116) [µM] | Ymin/T0 (SW1116) | Ymin/T0 (HCT116) | IC50 (HCT116) [µM] | IC50 (Colo320DM) [µM] | Ymin/T0 (Colo320DM) | IC50 (Colo320HSR) [µM] | Ymin/T0 (Colo320HSR) | IC50 (NCIH747) [µM] | Ymin/T0 (NCIH747) | IC50 (NCIH358) [µM] | Ymin/T0 (NCIH358) | Ymin/T0 (ASPC1) | IC50 (ASPC1) [µM] | Ymin/T0 (A549) | IC50 (A549) [µM] | further results
CC(=O)Nc1cccc(-n2c(=O)n(C3CC3)c(=O)c3c(Nc4ccc(I)cc4F)n(C)c(=O)c(C)c32)c1 [Compound A, N-{3-[3-cyclopropyl-5-(2-fluoro-4-iodo-phenylamino)-6,8-dimethyl-2,4,7-trioxo-3,4,6,7-tetrahydro-2H-pyrido[4,3-d]pyrimidin-1-yl]phenyl}acetamide] | 0.0226 | 15.22 | > 0.25 | 70.2 | 0.0146 | 2.28 | 19.40 | 0.0232 | > 0.25 | 81.01 | > 0.25 | 78.4 | 0.00535 | 5.55 | 0.0173 | 10.7 | 13.6 | 0.0197 | 15.9 | 0.0129 | IC50 (NCIH2170): > 0.25 µM; Ymin/T0 (NCIH2170): 59.5; IC50 (RKO): 0.0778 µM; Ymin/T0 (RKO): 24.44; Ymin/T0 (HCT-15): 57.0; IC50 (HCT-15): > 0.25 µM; IC50 (SW1417): 0.00286 µM; Ymin/T0 (SW1417): 16.19; IC50 (NCIH2228): > 0.25 µM; Ymin/T0 (NCIH2228): 39.7; Ymin/T0 (DLD1): 397; IC50 (DLD1): 0.342 µM; Ymin/T0 (Colo201): −8.96; IC50 (Colo201): 0.004 µM; Ymin/T0 (Calu6): 15.0; IC50 (Calu6): 0.0531 µM; IC50 (NCIH460): 0.063 µM; Ymin/T0 (NCIH460): 39.1; Ymin/T0 (HCC2998): 2.13; IC50 (HCC2998): 0.0167 µM
Cn1ncc(Cl)c1-c1cc(C(=O)N[C@H](CN)Cc2ccc(F)c(F)c2)oc1Cl [Compound B, N-{(1S)-2-amino-1-[(3,4-difluorophenyl)methyl]ethyl}-5-chloro-4-(4-chloro-1-methyl-1H-pyrazol-5-yl)-2-furancarboxamide] | 0.0682 | 11.12 | 0.568 | 15.0 | > 1 | 37.32 | 25.31 | > 1 | > 1 | 9.81 | > 1 | 28.6 | > 1 | 23.79 | > 1 | 37.2 | 42.9 | > 1 | 32.7 | > 1 | IC50 (NCIH2170): > 1 µM; Ymin/T0 (NCIH2170): 18.2; IC50 (RKO): > 1 µM; Ymin/T0 (RKO): 17.13; Ymin/T0 (HCT-15): 30.4; IC50 (HCT-15): > 1 µM; IC50 (SW1417): > 1 µM; Ymin/T0 (SW1417): 3.63; IC50 (NCIH2228): > 1 µM; Ymin/T0 (NCIH2228): 37.1; Ymin/T0 (DLD1): 29.0; IC50 (DLD1): > 1 µM; Ymin/T0 (Colo201): 80.16; IC50 (Colo201): > 1 µM; Ymin/T0 (Calu6): 56.3; IC50 (Calu6): > 1 µM; IC50 (NCIH460): 0.664 µM; Ymin/T0 (NCIH460): 20.8; Ymin/T0 (HCC2998): −4.90; IC50 (HCC2998): 0.292 µM

Source: patent publication US20150094321A1, “COMBINATION” (GlaxoSmithKline LLC, priority 2009, published 2015)
